Laboratory results published in the supplement of paper PMC10307832.

Assays:
Assay in all cases: relative viability (nuclei count vs DMSO), 5 days (fraction); higher = more cells survive
EMC-BAC-2 = system: EMC-BAC-2
How it was run: (§1)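 Each reported value is a median over duplicate plates. It expresses relative viability: treated-well nuclei count divided by vehicle-well nuclei count. Lung cancer cell lines in 1536-well plates were dosed by pin tool a day after seeding, alone with one drug or with a fixed anchor-drug dose plus five library-drug doses (not always all listed) in √10 steps, and nuclei were counted after 5 days.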

NCI-H1650 = system: NCI-H1650
How it was run: as §1

NCI-H1915 = system: NCI-H1915
How it was run: as §1

NCI-H2347 = system: NCI-H2347
How it was run: as §1

LCLC-97TM1 = system: LCLC-97TM1
How it was run: as §1

H3255 = system: H3255
How it was run: as §1

NCI-H2009 = system: NCI-H2009
How it was run: as §1

NCI-H1993 = system: NCI-H1993
How it was run: as §1

BEN = system: BEN
How it was run: as §1

NCI-H2342 = system: NCI-H2342
How it was run: as §1

NCI-H358 = system: NCI-H358
How it was run: as §1

NCI-H2023 = system: NCI-H2023
How it was run: as §1

NCI-H2085 = system: NCI-H2085
How it was run: as §1

NCI-H727 = system: NCI-H727
How it was run: as §1

SW 1573 = system: SW 1573
How it was run: as §1

HOP-62 = system: HOP-62
How it was run: as §1

NCI-H2126 = system: NCI-H2126
How it was run: as §1

NCI-H322M = system: NCI-H322M
How it was run: as §1

NCI-H661 = system: NCI-H661
How it was run: as §1

PC-14 = system: PC-14
How it was run: as §1

LXF-289 = system: LXF-289
How it was run: as §1

SK-LU-1 = system: SK-LU-1
How it was run: as §1

NCI-H647 = system: NCI-H647
How it was run: as §1

Clc1ccc(Nc2nnc(Cc3ccncc3)c3ccccc23)cc1 [Vatalanib] + Cc1cc(Nc2cc(N3CCN(C)CC3)nc(Sc3ccc(NC(=O)C4CC4)cc3)n2)n[nH]1 [Tozasertib] (partner 0.1 µM)
relative viability (EMC-BAC-2; first compound 0.04 µM): 0.218 | relative viability (EMC-BAC-2; first compound 0.1265 µM): 0.302 | relative viability (EMC-BAC-2; first compound 0.4 µM): 0.308 | relative viability (EMC-BAC-2; first compound 1.265 µM): 0.264 | relative viability (EMC-BAC-2; first compound 4 µM): 0.305 | relative viability (NCI-H1650; first compound 0.04 µM): 0.398 | relative viability (NCI-H1650; first compound 0.1265 µM): 0.246 | relative viability (NCI-H1650; first compound 0.4 µM): 0.438 | relative viability (NCI-H1650; first compound 1.265 µM): 0.37 | relative viability (NCI-H1650; first compound 4 µM): 0.425 | relative viability (NCI-H1915; first compound 0.04 µM): 0.457 | relative viability (NCI-H1915; first compound 0.1265 µM): 0.413 | relative viability (NCI-H1915; first compound 0.4 µM): 0.468 | relative viability (NCI-H1915; first compound 1.265 µM): 0.385 | relative viability (NCI-H1915; first compound 4 µM): 0.442 | relative viability (NCI-H2347; first compound 0.04 µM): 0.462 | relative viability (NCI-H2347; first compound 0.1265 µM): 0.579 | relative viability (NCI-H2347; first compound 0.4 µM): 0.678 | relative viability (NCI-H2347; first compound 1.265 µM): 0.61 | relative viability (NCI-H2347; first compound 4 µM): 0.55 | relative viability (LCLC-97TM1; first compound 0.04 µM): 0.301 | relative viability (LCLC-97TM1; first compound 0.1265 µM): 0.196 | relative viability (LCLC-97TM1; first compound 0.4 µM): 0.237 | relative viability (LCLC-97TM1; first compound 1.265 µM): 0.21 | relative viability (LCLC-97TM1; first compound 4 µM): 0.263 | relative viability (H3255; first compound 0.04 µM): 0.626 | relative viability (H3255; first compound 0.1265 µM): 0.619 | relative viability (H3255; first compound 0.4 µM): 0.637 | relative viability (H3255; first compound 1.265 µM): 0.75 | relative viability (H3255; first compound 4 µM): 0.63 | relative viability (NCI-H2009; first compound 0.04 µM): 0.752 | relative viability (NCI-H2009; first compound 0.1265 µM): 0.678 | relative viability (NCI-H2009; first compound 0.4 µM): 0.864 | relative viability (NCI-H2009; first compound 1.265 µM): 0.739 | relative viability (NCI-H2009; first compound 4 µM): 0.682 | relative viability (NCI-H1993; first compound 0.04 µM): 0.563 | relative viability (NCI-H1993; first compound 0.1265 µM): 0.566 | relative viability (NCI-H1993; first compound 0.4 µM): 0.608 | relative viability (NCI-H1993; first compound 1.265 µM): 0.542 | relative viability (NCI-H1993; first compound 4 µM): 0.592 | relative viability (BEN; first compound 0.04 µM): 0.464 | relative viability (BEN; first compound 0.1265 µM): 0.535 | relative viability (BEN; first compound 0.4 µM): 0.557 | relative viability (BEN; first compound 1.265 µM): 0.439 | relative viability (BEN; first compound 4 µM): 0.412 | relative viability (NCI-H2342; first compound 0.04 µM): 0.618 | relative viability (NCI-H2342; first compound 0.1265 µM): 0.532 | relative viability (NCI-H2342; first compound 0.4 µM): 0.492 | relative viability (NCI-H2342; first compound 1.265 µM): 0.465 | relative viability (NCI-H2342; first compound 4 µM): 0.492 | relative viability (NCI-H358; first compound 0.04 µM): 0.0969 | relative viability (NCI-H358; first compound 0.1265 µM): 0.0902 | relative viability (NCI-H358; first compound 0.4 µM): 0.08 | relative viability (NCI-H358; first compound 1.265 µM): 0.108 | relative viability (NCI-H358; first compound 4 µM): 0.0997 | relative viability (NCI-H2023; first compound 0.04 µM): 0.374 | relative viability (NCI-H2023; first compound 0.1265 µM): 0.377 | relative viability (NCI-H2023; first compound 0.4 µM): 0.424 | relative viability (NCI-H2023; first compound 1.265 µM): 0.287 | relative viability (NCI-H2023; first compound 4 µM): 0.241 | relative viability (NCI-H2085; first compound 0.04 µM): 0.796 | relative viability (NCI-H2085; first compound 0.1265 µM): 0.831 | relative viability (NCI-H2085; first compound 0.4 µM): 0.829 | relative viability (NCI-H2085; first compound 1.265 µM): 0.744 | relative viability (NCI-H2085; first compound 4 µM): 0.637 | relative viability (NCI-H727; first compound 0.04 µM): 0.6 | relative viability (NCI-H727; first compound 0.1265 µM): 0.658 | relative viability (NCI-H727; first compound 0.4 µM): 0.472 | relative viability (NCI-H727; first compound 1.265 µM): 0.624 | relative viability (NCI-H727; first compound 4 µM): 0.533 | relative viability (SW 1573; first compound 0.04 µM): 0.145 | relative viability (SW 1573; first compound 0.1265 µM): 0.165 | relative viability (SW 1573; first compound 0.4 µM): 0.215 | relative viability (SW 1573; first compound 1.265 µM): 0.257 | relative viability (SW 1573; first compound 4 µM): 0.153 | relative viability (HOP-62; first compound 0.04 µM): 0.401 | relative viability (HOP-62; first compound 0.1265 µM): 0.335 | relative viability (HOP-62; first compound 0.4 µM): 0.396 | relative viability (HOP-62; first compound 1.265 µM): 0.336 | relative viability (HOP-62; first compound 4 µM): 0.405 | relative viability (NCI-H2126; first compound 0.04 µM): 0.808 | relative viability (NCI-H2126; first compound 0.1265 µM): 0.769 | relative viability (NCI-H2126; first compound 0.4 µM): 0.829 | relative viability (NCI-H2126; first compound 1.265 µM): 0.805 | relative viability (NCI-H2126; first compound 4 µM): 0.82 | relative viability (NCI-H322M; first compound 0.04 µM): 0.446 | relative viability (NCI-H322M; first compound 0.1265 µM): 0.441 | relative viability (NCI-H322M; first compound 0.4 µM): 0.553 | relative viability (NCI-H322M; first compound 1.265 µM): 0.479 | relative viability (NCI-H322M; first compound 4 µM): 0.463 | relative viability (NCI-H661; first compound 0.04 µM): 0.357 | relative viability (NCI-H661; first compound 0.1265 µM): 0.363 | relative viability (NCI-H661; first compound 0.4 µM): 0.331 | relative viability (NCI-H661; first compound 1.265 µM): 0.357 | relative viability (NCI-H661; first compound 4 µM): 0.366 | relative viability (PC-14; first compound 0.04 µM): 0.625 | relative viability (PC-14; first compound 0.1265 µM): 0.523 | relative viability (PC-14; first compound 1.265 µM): 0.51 | relative viability (PC-14; first compound 4 µM): 0.592 | relative viability (LXF-289; first compound 0.04 µM): 0.201 | relative viability (LXF-289; first compound 0.1265 µM): 0.168 | relative viability (LXF-289; first compound 0.4 µM): 0.229 | relative viability (LXF-289; first compound 1.265 µM): 0.192 | relative viability (LXF-289; first compound 4 µM): 0.212 | relative viability (SK-LU-1; first compound 0.04 µM): 0.374 | relative viability (SK-LU-1; first compound 0.1265 µM): 0.33 | relative viability (SK-LU-1; first compound 0.4 µM): 0.404 | relative viability (SK-LU-1; first compound 1.265 µM): 0.349 | relative viability (SK-LU-1; first compound 4 µM): 0.322 | relative viability (NCI-H647; first compound 0.04 µM): 0.3 | relative viability (NCI-H647; first compound 0.1265 µM): 0.262 | relative viability (NCI-H647; first compound 0.4 µM): 0.352 | relative viability (NCI-H647; first compound 1.265 µM): 0.26 | relative viability (NCI-H647; first compound 4 µM): 0.259
